Reference: US9296681B2, “Cycloalkylmethylamines” (Reviva Pharmaceuticals, Inc., priority 2006, dated 2016)

Assays:
[1] = molecular target: human recombinant dopamine transporter (DAT) (Homo sapiens (Human), UniProt Q01959); experiment: radioligand binding assay, dopamine transporter; conditions: 11 test concentrations, duplicates
Description: (§1) The monoamine transporters inhibitory activities of selected compounds cycloalkylmethylamine derivatives comprising Formula (I) are reported herein. The compounds were evaluated using well established radioligand binding assays protocols (Galli, A. et al., J. Exp. Biol. 1995, 198, 2197-2212; Giros, B. et al., Trends Pharmcol. Sci. 1993, 14, 43-49; Gu, H. et al., J. Biol. Chem. 1994, 269(10), 7124-7130; Shearman, L. P. et al, Am. J. Physiol., 1998, 275 (6 Pt 1), C1621-1629; Wolf, W. A. et al., J. Biol. Chem. 1992, 267(29), 20820-20825). The human recombinant transporter proteins dopamine (DAT), norepinephrine (NET) and serotonin (SERT) were selected for the in vitro assays. The radioligand binding assays were carried out at 11 different test concentrations […] to 1 μM.
(§2) The assays were carried out in duplicates and the quantitative data are reported as Ki in the TABLE 1.

[2] = molecular target: human recombinant norepinephrine transporter (NET) (Homo sapiens (Human), UniProt P23975); experiment: radioligand binding assay, norepinephrine transporter; conditions: 11 test concentrations, duplicates
human recombinant norepinephrine transporter (NET), sequence (P23975 whole entry): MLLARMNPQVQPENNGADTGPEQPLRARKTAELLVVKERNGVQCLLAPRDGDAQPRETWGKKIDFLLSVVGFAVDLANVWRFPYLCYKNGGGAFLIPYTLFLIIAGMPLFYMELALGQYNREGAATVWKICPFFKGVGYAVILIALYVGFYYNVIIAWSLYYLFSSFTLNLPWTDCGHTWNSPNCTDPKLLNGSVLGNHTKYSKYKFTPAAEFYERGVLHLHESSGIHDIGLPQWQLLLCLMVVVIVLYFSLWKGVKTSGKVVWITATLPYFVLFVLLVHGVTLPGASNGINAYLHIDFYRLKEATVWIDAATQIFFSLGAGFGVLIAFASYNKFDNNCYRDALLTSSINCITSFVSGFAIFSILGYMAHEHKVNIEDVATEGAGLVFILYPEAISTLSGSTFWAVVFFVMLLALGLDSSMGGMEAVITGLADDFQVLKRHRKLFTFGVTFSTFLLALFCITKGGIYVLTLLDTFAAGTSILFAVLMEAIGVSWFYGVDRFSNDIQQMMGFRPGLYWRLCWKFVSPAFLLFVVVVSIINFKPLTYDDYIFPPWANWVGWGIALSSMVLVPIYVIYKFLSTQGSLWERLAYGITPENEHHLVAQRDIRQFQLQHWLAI
Description: as §1, §2

[3] = molecular target: human recombinant serotonin transporter (SERT) (Homo sapiens (Human), UniProt P31645); experiment: radioligand binding assay, serotonin transporter; conditions: 11 test concentrations, duplicates
Description: as §1, §2

[4] = active metabolites of sibutramine; cited from earlier work

human recombinant dopamine transporter (DAT), sequence (Q01959 whole entry): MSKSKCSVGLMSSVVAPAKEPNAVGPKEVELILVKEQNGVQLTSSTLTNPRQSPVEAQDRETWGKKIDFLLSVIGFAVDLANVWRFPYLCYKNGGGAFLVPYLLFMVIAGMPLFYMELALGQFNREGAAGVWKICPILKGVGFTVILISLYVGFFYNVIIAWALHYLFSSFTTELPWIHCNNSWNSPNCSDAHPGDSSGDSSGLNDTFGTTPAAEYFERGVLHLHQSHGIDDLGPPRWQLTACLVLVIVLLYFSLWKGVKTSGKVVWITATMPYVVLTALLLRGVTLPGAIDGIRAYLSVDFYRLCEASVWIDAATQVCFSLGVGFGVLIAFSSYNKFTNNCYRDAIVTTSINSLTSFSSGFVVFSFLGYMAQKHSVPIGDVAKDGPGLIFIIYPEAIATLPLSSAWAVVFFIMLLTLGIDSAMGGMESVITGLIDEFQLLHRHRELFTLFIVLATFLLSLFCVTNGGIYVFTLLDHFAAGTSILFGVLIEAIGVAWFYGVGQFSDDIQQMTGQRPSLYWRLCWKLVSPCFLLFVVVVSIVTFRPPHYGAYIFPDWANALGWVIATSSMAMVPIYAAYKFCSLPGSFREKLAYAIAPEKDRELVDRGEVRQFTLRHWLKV

Row | Structure (SMILES) | Ki [1] [nM] | Ki [2] [nM] | Ki [3] [nM] | elimination half-life [4] [h]
1 | CC(C)CC(NCCCC(N)=O)C1(c2ccc(Cl)c(Cl)c2)CCC1 (racemic) [Compound 33a-Racemic] | 1.5 | 50.1 | 8.1 | 
2 | CCOc1ccc(C2(C(CC(C)C)NCCCC(N)=O)CCC2)cc1 (racemic) [Compound 33b-Racemic] | 472 | > 10000 | 5.49 | 
3 | CC(C)C[C@@H](NCCCC(N)=O)C1(c2ccc(Cl)c(Cl)c2)CCC1 (single isomer, unassigned; isomer-1) [33a-(R)-Isomer] | 0.91 | 30.3 | 2.3 | 
4 | CC(C)C[C@H](NCCCC(N)=O)C1(c2ccc(Cl)c(Cl)c2)CCC1 (single isomer, unassigned; isomer-2) [33a-(S)-Isomer] | 126 | 3420 | 300 | 
5 | CNC(CC(C)C)C1(c2ccc(Cl)cc2)CCC1 (centres unmarked) [Compound M1] |  |  |  | 14
6 | CC(C)CC(N)C1(c2ccc(Cl)cc2)CCC1 (centres unmarked) [Compound M2] |  |  |  | 16
